Laboratory results from US6541027B1, “Lactic acid bacteria with anxiolytic properties and uses thereof” (Compagnie Gervais Danone, priority 1999, dated 2003).
Entries after “also recorded” stand apart in the source; their conditions may differ.

Experiments:
SPF Wistar/AF male rats [1] = experiment: Conditioned Defensive Burying test, overall stress score; assay type: in vivo, rat; conditions: for overall stress score during test 2: test 2 on day 8, 6 hours after administration (diazepam 3 mg/kg p.o. daily, 1 hour before test); for overall stress score: 5 ml/kg p.o. daily for 6 days
Protocol: The anxiolytic effect is evaluated using the Conditioned Defensive Burying model, which was developed from the procedure by J. P. PINEL and D. TREIT (PINEL and TREIT, J. Comp. & Physiol. Psychol., 92, 708-712, 1978; TREIT et al., Pharmacol. Biochem. Behav., 15, 619-626, 1981). This model uses the natural propensity of most rodents to bury themselves from a stressful source of stimulus (TREIT, Pharmacol. Biochem. Behav., 22, 1, 47-52, 1985; MEERT and COLPAERT, Psychopharmacology, 88, 445-450, 1986; CRAFT et al., Pharmacol. Biochem. Behav., 30, 3, 775-780, 1988; TREIT, Pharmacol. Biochem. Behav., 36, 203-205, 1990).
Seventy two SPF Wistar/AF male rats (IFFA-CREDO breeding center, 69—St-Germain sur l'Arbresle, France) weighing 320 to 340 g were used. On reception, the rats were weighed, marked and divided into groups of 4 in type F polycarbonate cages (48×27×20 cm, U.A.R., 91—Epinay-Sur-Orge, France). The animals were stalled in an air-conditioned animal house, at a temperature of 22-24° C. Food (M25 biscuits, Ets […], 77—Provins, France) and drink were available to the rats ad libitum. They were subjected to a light-darkness cycle of 12 hours (light from 24 h to 12 h).
After a week's familiarization with the laboratory conditions, the 72 rats were randomly divided into 6 groups (n=12). The rats in the different groups were all handled in the same way and under the same conditions.
Habituation and the tests were carried out in a transparent cage having the dimensions 44×28×18 cm, whose base is covered with sawdust over a thickness of 5 cm. In the middle of a lateral face, an orifice allows the attachment of an electric probe, 2 cm above the level of the sawdust.
It is a probe made of plexiglas having the dimensions 7×2×0.5 cm, covered with a copper printed circuit in which the gap between the wires is 1 mm, chosen so that one leg of the rat coming to rest on the probe easily makes contact between them, thus allowing the passage of current.
The probe is connected to a manually triggered generator of electric shocks of 0 to 8 mA (OPEN-SYSTEMS, 54—Maxeville, France).
In the faintly illuminated experimental room, a video camera was placed in front of the cage of the setup, at a distance of one meter. The camera is connected to a video recorder and to a control monitor, which are placed in an adjacent room with the electric shock generator.
The experiment was carried out according to a double blind design.
During the 2 days preceding the first test, the rats were transported from the animal house to the experimental room and introduced into the experimental device in order to habituate them to both the handling and to the cage of the device in the absence of the electrode. Each group of 4 rats was placed in the device for 20 minutes. The sawdust is changed, leveled to a uniform height of 5 cm, before the period of habituation of each of the groups.
The electric probe is inserted into the cage before the beginning of the first test. Each rat is placed in the experimental cage on the side opposite the probe.
During the first test (test 1), a single electric shock, of low intensity (2 mA) is delivered to the animal when it places a hind leg for the first time on the probe.
Following the electric shock, the behavior of each rat is recorded for 5 minutes. […] The probe is cleaned after each rat and the sawdust is changed and leveled to a uniform height of 5 cm before the test session for each cage of rats.
The products L, 3ST, 3S and 3S+P were orally administered daily at the same times, at the doses of 5 ml/kg by means of syringes provided with intragastric forced-feeding probes (HARVARD APPARATUS, 91—Les Ulis, France). The burying tests (test 1 on day 6 and test 2 on day 8) were carried out 6 hours after the administration of the products.
The positive control is diazepam (3 mg/kg), which was suspended in an aqueous solution of methyl cellulose at 1% and was orally administered daily, for the same period. […]

SPF Wistar/AF male rats [2] = experiment: Sedative effect (locomotive and exploratory activity) during the Conditioned Defensive Burying test; assay type: in vivo, rat; conditions: Example 2; test 1 on day 6; 5 ml/kg p.o. daily (diazepam 3 mg/kg p.o.)
Protocol: The tests were carried out according to the protocol described in example 2 above, on one hundred and fifty eight SPF Wistar/AF males (IFFA-CREDO breeding center, 69—St Germain sur Arbresles, France) weighing 260 to 280 g. After a week's familiarization with the laboratory conditions, the rats were randomly divided into 13 treatment groups. The rats of the various groups were handled in the same manner and under the same conditions.
All the products were orally administered daily for 6 days at the same times at the doses of 5 ml/kg using syringes equipped with intragastric forced-feeding probes (HARVARD APPARATUS, 91—Les Ulis, France). On the day for the test, they were administered 6 hours before the burying test.
number of […]: the rat adopts the vertical position while resting on its hind legs;
number of passes from one side of the cage to another.

SMILES: CN1C(=O)CN=C(c2ccccc2)c2cc(Cl)ccc21 [diazepam]
- overall stress score during test 1 (SPF Wistar/AF male rats [1]; Example 2, 5 ml/kg p.o. daily, test 1 on day 6, 6 hours after administration (diazepam 3 mg/kg p.o. daily, 1 hour before test), vs. control product L): tends to reduce the overall stress score; also recorded: showed only a trend to reduce the overall stress score
- overall stress score during test 2 (SPF Wistar/AF male rats [1]; Example 2, 5 ml/kg p.o. daily, vs. control product L): not significantly different from the product L
- overall stress score during test 2 (SPF Wistar/AF male rats [1]; Example 2, 5 ml/kg p.o. daily, vs. control product L, listed as Diazepam): no effect which is statistically different from that of the control
- phenomenon of tolerance (habituation) between test 1 and test 2 (SPF Wistar/AF male rats [1]; Example 2, daily oral administration, day 6 vs. day 8): phenomenon of tolerance observed
- overall stress score (SPF Wistar/AF male rats [1]; Example 3, last dose 6 hours before test (diazepam 1-3 mg/kg p.o. over 6 days, 1 hour before test), vs. control product L): significantly lower overall stress scores; also recorded: significant antistress activity
- overall stress score (SPF Wistar/AF male rats [1]; Example 5, test 1 hour after last dose (diazepam 1-3 mg/kg p.o., 1 hour before test), vs. control product L): significantly lower than that of the control product L
- sedative effect during test 1 (SPF Wistar/AF male rats [2]): sedative effect
